Earlier results on one molecule are cited in US20100129431A1, “IDEBENONE COMPOSITION FOR THE TREATMENT OF NEUROLOGICAL DISORDERS” (AlphaRx Inc., priority 2008, published 2010).

SMILES strings stand for the structures.

One data set has as its system rats. The note with it: cerebral embolization, cerebral ischemia or basal forebrain lesions.
For data set [1] the following is noted: oral.
For data set [2], the system named is microsomal lipid peroxidation. The note with it: induced by ADP-iron complexes or organic hydroperoxides.
In a further data set the test system is free radical species. The note with it: cell cultures.
Data set [3] relates to patients with cerebrovascular disease. The note with it: 90 mg daily, nine patients.
For data set [4] the following is noted: clinical tests.
For data set [5], the system named is cultured cortical neurons. The note with it: also when applied 30 minutes after the NMDA pulse.
For data set [6], the system named is Friedreich's Ataxia patients.

On to `COC1=C(OC)C(=O)C(CCCCCCCCCCO)=C(C)C1=O` [Idebenone, 2,3-dimethoxy-5-methyl-6-(10-hydroxydecyl)-1,4-benzoquinone], for which the water solubility result is listed as “low”. The “learning and memory disturbances” value in the data set with rats is “ameliorates learning and memory disturbances”. Further, the bioavailability result in data set [1] is recorded as “relatively, high”. The microsomal lipid peroxidation entry in [2] is recorded as “inhibit microsomal lipid peroxidation”. Further, the free radical scavenging entry with free radical species is listed as “scavenged a variety of free radical species”. Further, in data set [3], the “EEG and clinical symptoms” value was “improvements in EEG and clinical symptoms”. Moreover, in data set [4], the “psychological deficits (memory retention, disorientation)” value is “effective in reducing psychological deficits”. Besides, in data set [5], the “protection against necrotic degeneration” value is “protects cultured cortical neurons against necrotic degeneration”. The left ventricular enlargement entry in data set [6] (5 mg/kg daily for 4-9 months, three patients) is “reduction of left ventricular enlargement”. Besides, the “marker of oxidative DNA damage” value in data set [6] (oral 5 mg/kg daily for 8 weeks) was “significantly decreased”.
